Experimental data: patent publication US9051300B2, “Herbicides” (Syngenta Limited, priority 2009, dated 2015)

What was measured:
Type in all cases: in vivo
[1] = test system: Echinochloa crus-galli (ECHCG); assay: Post-emergence herbicidal activity, glasshouse pot test; settings: 312 h, evaluated after 13 days, 100=total damage to plant, 0=no damage
Protocol: (§1) Seeds of a variety of test species are sown in standard soil in pots. After cultivation for one day (pre-emergence) or after 8 days cultivation (post-emergence) under controlled conditions in a glasshouse (at 24/16° C., day/night; 14 hours light; 65% humidity), the plants are sprayed with an aqueous spray solution derived from the formulation of the technical active ingredient in acetone/water (50:50) solution containing 0.5% Tween 20 (polyoxyethylene sorbitan monolaurate, CAS RN 9005-64-5). The test plants are then grown in a glasshouse under controlled conditions in a glasshouse (at 24/16° C., day/night; 14 hours light; 65% humidity) and watered twice daily. After 13 days for pre and post-emergence, the test is evaluated (100=total damage to plant; 0=no damage to plant). Lolium perenne (LOLPE), Alopecurus myosuroides (ALOMY), Echinochloa crus-galli (ECHCG), Avena fatua (AVEFA) Post-Emergence Activity

Avena fatua (AVEFA) [2] = assay: as above; settings: 312 h, evaluated after 13 days, 100=total damage to plant, 0=no damage
Protocol: as §1

[3] = test system: Alopecurus myosuroides (ALOMY); assay: as above; settings: 312 h, evaluated after 13 days, 100=total damage to plant, 0=no damage
Protocol: as §1

Lolium perenne (LOLPE) [4] = assay: as above; settings: 312 h, evaluated after 13 days, 100=total damage to plant, 0=no damage
Protocol: as §1

[5] = test system: Echinochloa crus-galli (ECHCG); assay: Pre-emergence herbicidal activity, glasshouse pot test; settings: rate not printed (columns shifted), evaluated after 13 days, 100=total damage to plant, 0=no damage
Protocol: as §1, with “Pre-Emergence” for “Post-Emergence”

Avena fatua (AVEFA) [6] = assay: as above; settings: rate not printed (columns shifted), evaluated after 13 days, 100=total damage to plant, 0=no damage
Protocol: as §1, with “Pre-Emergence” for “Post-Emergence”

[7] = test system: Alopecurus myosuroides (ALOMY); assay: as above; settings: rate not printed (columns shifted), evaluated after 13 days, 100=total damage to plant, 0=no damage
Protocol: as §1, with “Pre-Emergence” for “Post-Emergence”

Lolium perenne (LOLPE) [8] = assay: as above; settings: rate not printed (columns shifted), evaluated after 13 days, 100=total damage to plant, 0=no damage
Protocol: as §1, with “Pre-Emergence” for “Post-Emergence”

[9] = test system: Winter Wheat variety 'Hereward'; assay: Crop damage to winter wheat seed treated with safener cloquintocet mexyl, post-emergence spray; settings: 250 g/ha, seed treated with cloquintocet mexyl 0.5 g/kg seed, evaluated after 13 days, 100=total damage, 0=no damage
Protocol: Seeds of the Winter Wheat variety ‘Hereward’ were seed treated with a wettable powder formulation of the cereal herbicide safener, cloquintocet mexyl, at a rate of 0.5 grams per kilogram of dry seed prior to the initiation of glasshouse testing. One seed was sown per 1.5 inch plastic pot into a sandy loam soil at a depth of 1 cm, 8 days prior to application of the test compounds and was watered and grown under controlled conditions in a glasshouse (at 24/16° C., day/night; 14 hours light; 65% humidity). The plants were sprayed post-emergence with an aqueous spray solution derived from the formulation of the technical active ingredient in acetone/water (50:50) solution containing 0.5% Tween 20 (polyoxyethylene sorbitan monolaurate, CAS RN 9005-64-5). The test plants were then grown in a glasshouse under controlled conditions in a glasshouse (at 24/16° C., day/night; 14 hours light; 65% humidity) and watered twice daily. After 13 days for pre and post-emergence, the test was evaluated (100=total damage to plant; 0=no damage to plant).

[10] = test system: Winter Wheat variety 'Hereward'; assay: Crop damage to winter wheat, post-emergence spray; settings: 250 g/ha, no safener, evaluated after 13 days, 100=total damage to plant, 0=no damage
Protocol: Seeds of the Winter Wheat variety ‘Hereward’ were sown in standard soil in pots. After 8 days cultivation under controlled conditions in a glasshouse (at 24/16° C., day/night; 14 hours light; 65% humidity), the plants were sprayed post-emergence with an aqueous spray solution derived from the formulation of the technical active ingredient in acetone/water (50:50) solution containing 0.5% Tween 20 (polyoxyethylene sorbitan monolaurate, CAS RN 9005-64-5). The test plants were then grown in a glasshouse under controlled conditions in a glasshouse (at 24/16° C., day/night; 14 hours light; 65% humidity) and watered twice daily. After 13 days for pre and post-emergence, the test was evaluated (100=total damage to plant; 0=no damage to plant).

Cc1sc(-c2ccc(Cl)cc2)nc1C1C(=O)CC(Cc2ccccn2)C1=O (centres unmarked) [Compound A16]
pest or weed control at 250 g/ha [1]: 100%
pest or weed control at 250 g/ha (Avena fatua (AVEFA) [2]): 100%
pest or weed control at 250 g/ha [3]: 90%
pest or weed control at 250 g/ha (Lolium perenne (LOLPE) [4]): 100%
Pre-Emergence Activity ECHCG (damage to plant) [5]: 100
Pre-Emergence Activity AVEFA (damage to plant) (Avena fatua (AVEFA) [6]): 80
Pre-Emergence Activity ALOMY (damage to plant) [7]: 90
Pre-Emergence Activity LOLPE (damage to plant) (Lolium perenne (LOLPE) [8]): 90
Winter Wheat (Hereward) + cloquintocet mexyl (damage to plant) [9]: 60
Winter Wheat (Hereward) (damage to plant) [10]: 60

Cc1sc(-c2ccc(Cl)cc2)nc1C1C(=O)C/C(=C/c2ccccn2)C1=O (centres unmarked) [Compound A15]
pest or weed control at 250 g/ha [1]: 20%
pest or weed control at 250 g/ha (Avena fatua (AVEFA) [2]): 0%
pest or weed control at 250 g/ha [3]: 10%
pest or weed control at 250 g/ha (Lolium perenne (LOLPE) [4]): 0%
Winter Wheat (Hereward) + cloquintocet mexyl (damage to plant) [9]: 0
Winter Wheat (Hereward) (damage to plant) [10]: 10

Cc1sc(-c2ccc(Br)cn2)nc1C1C(=O)C/C(=C\C2CCOCC2)C1=O (centres unmarked) [Compound A4]
pest or weed control at 250 g/ha [1]: 70%
pest or weed control at 250 g/ha (Avena fatua (AVEFA) [2]): 0%
pest or weed control at 250 g/ha [3]: 20%
pest or weed control at 250 g/ha (Lolium perenne (LOLPE) [4]): 0%

Cc1sc(-c2ccc(Cl)cc2)cc1C1C(=O)CC(CC2CCOC2)C1=O (centres unmarked) [Compound A5]
pest or weed control at 250 g/ha [1]: 80%
pest or weed control at 250 g/ha (Avena fatua (AVEFA) [2]): 50%
pest or weed control at 250 g/ha [3]: 50%
pest or weed control at 250 g/ha (Lolium perenne (LOLPE) [4]): 30%

Cc1cc(-c2ccc(Cl)cc2)nn1C1C(=O)CC(Cc2ccc(F)cn2)C1=O (centres unmarked) [Compound A20]
pest or weed control at 250 g/ha [1]: 100%
pest or weed control at 250 g/ha (Avena fatua (AVEFA) [2]): 90%
pest or weed control at 250 g/ha [3]: 80%
pest or weed control at 250 g/ha (Lolium perenne (LOLPE) [4]): 90%
Pre-Emergence Activity ECHCG (damage to plant) [5]: 100
Pre-Emergence Activity AVEFA (damage to plant) (Avena fatua (AVEFA) [6]): 20
Pre-Emergence Activity ALOMY (damage to plant) [7]: 40
Pre-Emergence Activity LOLPE (damage to plant) (Lolium perenne (LOLPE) [8]): 70
Winter Wheat (Hereward) + cloquintocet mexyl (damage to plant) [9]: 70
Winter Wheat (Hereward) (damage to plant) [10]: 70

Cc1sc(-c2ccc(Cl)cc2)nc1C1C(=O)C/C(=C\c2ccc(F)cn2)C1=O (centres unmarked) [Compound A13]
pest or weed control at 250 g/ha [1]: 20%
pest or weed control at 250 g/ha (Avena fatua (AVEFA) [2]): 10%
pest or weed control at 250 g/ha [3]: 10%
pest or weed control at 250 g/ha (Lolium perenne (LOLPE) [4]): 0%

Cc1sc(COc2ccc(Cl)cc2)nc1C1C(=O)CC(CC2CCOCC2)C1=O (centres unmarked) [Compound A2]
pest or weed control at 250 g/ha [1]: 20%
pest or weed control at 250 g/ha (Avena fatua (AVEFA) [2]): 0%
pest or weed control at 250 g/ha [3]: 10%
pest or weed control at 250 g/ha (Lolium perenne (LOLPE) [4]): 10%

Cc1cc(-c2ccc(Cl)cc2)nn1C1C(=O)C/C(=C\C2CCOCC2)C1=O (centres unmarked) [Compound A23]
pest or weed control at 250 g/ha [1]: 100%
pest or weed control at 250 g/ha (Avena fatua (AVEFA) [2]): 100%
pest or weed control at 250 g/ha [3]: 90%
pest or weed control at 250 g/ha (Lolium perenne (LOLPE) [4]): 100%
Pre-Emergence Activity ECHCG (damage to plant) [5]: 100
Pre-Emergence Activity AVEFA (damage to plant) (Avena fatua (AVEFA) [6]): 90
Pre-Emergence Activity ALOMY (damage to plant) [7]: 90
Pre-Emergence Activity LOLPE (damage to plant) (Lolium perenne (LOLPE) [8]): 100
Winter Wheat (Hereward) + cloquintocet mexyl (damage to plant) [9]: 60
Winter Wheat (Hereward) (damage to plant) [10]: 80

Cc1sc(-c2ccc(Cl)cc2)cc1C1C(=O)CC(CC2CCOCC2)C1=O (centres unmarked) [Compound A6]
pest or weed control at 250 g/ha [1]: 60%
pest or weed control at 250 g/ha (Avena fatua (AVEFA) [2]): 0%
pest or weed control at 250 g/ha [3]: 50%
pest or weed control at 250 g/ha (Lolium perenne (LOLPE) [4]): 0%
Winter Wheat (Hereward) + cloquintocet mexyl (damage to plant) [9]: 0
Winter Wheat (Hereward) (damage to plant) [10]: 10

Cc1sc(COc2ccc(Cl)cc2)nc1C1C(=O)C/C(=C\C2CCOCC2)C1=O (centres unmarked) [Compound A3]
pest or weed control at 250 g/ha [1]: 20%
pest or weed control at 250 g/ha (Avena fatua (AVEFA) [2]): 0%
pest or weed control at 250 g/ha [3]: 10%
pest or weed control at 250 g/ha (Lolium perenne (LOLPE) [4]): 0%

Cc1ccc2c(cnn2C)c1C1C(=O)CC(CC2CCOCC2)C1=O (centres unmarked) [Compound A19]
pest or weed control at 250 g/ha [1]: 40%
pest or weed control at 250 g/ha (Avena fatua (AVEFA) [2]): 10%
pest or weed control at 250 g/ha [3]: 20%
pest or weed control at 250 g/ha (Lolium perenne (LOLPE) [4]): 0%

Cc1sc(-c2ccc(Cl)cc2)nc1C1C(=O)C/C(=C\c2ccoc2)C1=O (centres unmarked) [Compound A11]
pest or weed control at 250 g/ha [1]: 80%
pest or weed control at 250 g/ha (Avena fatua (AVEFA) [2]): 0%
pest or weed control at 250 g/ha [3]: 10%
pest or weed control at 250 g/ha (Lolium perenne (LOLPE) [4]): 0%

Cc1sc(-c2ccc(Cl)cc2)cc1C1C(=O)C/C(=C\C2CCOCC2)C1=O (centres unmarked) [Compound A10]
pest or weed control at 250 g/ha [1]: 70%
pest or weed control at 250 g/ha (Avena fatua (AVEFA) [2]): 0%
pest or weed control at 250 g/ha [3]: 20%
pest or weed control at 250 g/ha (Lolium perenne (LOLPE) [4]): 10%
